Measured values taken from US20130210034A1, “COMPLEX PHOSPHOPROTEIN ACTIVATION PROFILES” (BECKMAN COULTER, INC., priority 2005, published 2013).

Key:
Format in all cases: cell-based, human
pSTAT5 = test: Cytokine-stimulated phosphorylation in AML cell populations (BM or PB of AML patients)
Protocol: (§1) To assess the signal transduction response after growth factor simulation, a series comprising two sets of tubes including about 3×10^6 cells/100 μL were incubated at 37° C. for 30 minutes. After this pre-incubation period, tubes with then processes with either a stimulant or inhibitor. […] To examine the effects of protein phosphorylation inhibition, tubes were incubated with an inhibitor cocktail comprising 100 μM/100 μL UO126, 1 μM/100 μL LY294002, and 1 μM/100 μL rapamycin. One unstimulated tube receiving no stimulant or inhibitor was processed to assess basal levels of phospho-protein expression. After stimulation the cells were immediately fixed in 10% formaldehyde solution at 37° C. Pre-labeling with CD13, CD16 and CD64 antibodies was carried out 20 minutes prior to formaldehyde fixation. After fixation, one set of tubes was permeabilized without methanol for pAKT, pERK and pS6 staining and the other for 80% methanol permeabilized for pSTAT3 and pSTAT5 staining. After permeablization, the cells were washed in PBS with 2% BSA and blocked by re-suspended in 75 μL of PBS comprising 25% heat inactivated normal mouse serum, 25% normal rabbit serum. To stain cells with fluorescent conjugated monoclonal antibodies, samples were incubated on ice for 45 minutes in 100 μL of an antibody staining solution including either: 1) CD15-Pacific Orange, CD34-Phycoerythrin-Texas Red, CD117-Phycoerythrin-Cyanin 5.5, CD45-Allophycocyanin-Alexa Fluor 750 (or CD45-Pacific Orange, in which case CD15-Pacific Orange was omitted), pS6-Pacific Blue, pERK-Alexa Fluor 488 and pAKT-Alexa Fluor 647 or 2) CD15-Pacific Orange, CD34-Phycoerythrin-Texas Red, CD117-Phycoerythrin-Cyanin 5.5, CD45-Allophycocyanin-Alexa Fluor 750 or CD45-Pacific Blue, pSTAT3-Alexa Fluor 488 and pSTAT5-Phycoerythrin. The stained cells were washed twice with ice cold PBS containing 2% BSA and centrifuged at 800 g for 6 minutes at 4° C. The supernatant was discarded and cells re-suspended in 250 μL of chilled wash buffer for data acquisition. Stained cells were examined using either GALIOS flow cytometer (Beckman Coulter) or CYAN ADP (Beckman Coulter) equipped with 488 nm, 405 nm and 635 nm lasers to detect the degree of fluorescence. Data were analyzed using FCS Express (De Novo Software, CA) analysis software.
(§2) Specific phosphoprotein expression of pERK, pS6, pAKT, pSTAT5, and pSTAT3 was examined in seven discrete phenotypically defined populations based on 7-color immunophenotyping (FIG. 1). The percent of responding (phosphorprotein positive) cells for each of these populations was determined from individual single parameter histograms based on a fixed integration region set on the inhibitor treated control at about 3% positives.
(§3) Using normal BM signaling profiles of Example 1 as comparison, analysis of 14 AML samples was carried out to identify differences in signaling responses. White blood cells from BM or peripheral blood (PB) samples were obtained from 14 diagnosed AML patients undergoing routine clinical flow cytometry analysis using IRB approved protocols. The AML patients included newly diagnosed AML, AMLs arising in a background of MDS, therapy related AMLs and previously diagnosed AML post therapy. The median age of the patients at diagnosis was 51 years (range: 29-75 years) and represented 5 female and 9 male patients. The median white blood cell was 6.4 million/mL (range: 0.9-106 M/mL) and the BM morphologic blast count was an average of 46% (range: 0%-90%).
(§4) Experiments performed to assess the signal transduction response after growth factor simulation were performed as described for Example 1.

pERK and pS6 = test: Comparison of SCF-stimulated pERK and pS6 (pERK/pS6 ratios) in healthy donor and AML bone marrow samples
Protocol: In an attempt to dissect the differences between the pERK and pS6 kinetic profiles in healthy donor and AML bone marrow sampless, SCF-stimulated pERK and pS6 data derived from AML1, ALM2, and healthy donors 6 to 9 were analyzed from four different perspectives: MFI, the frequency of positive-stained cells, the ratio of positive to negative cells, and fold stimulation (FIG. 10 and Table 10). The ratio of positives to negative cells was calculated by estimating the AUC of both positive- and negative-stained cells at each t=n, and then expressing this as the ratio of positives to negatives. The fold stimulation was the fold change of the positive/negative ratio at t=n over the baseline ratio at t=0 min. […] However, this was not the case in the AML samples.

pAKT = test: Cytokine-stimulated phosphorylation in AML cell populations (BM or PB of AML patients)
Protocol: as §1, §2, §3, §4

**Q.** What does the source list for “Granulocyte-Macrophage Colony-Stimulating Factor [GM-CSF]”?
**A.** pSTAT5, AML Sample (pSTAT5; patient AML2 (Example 3)): 14.6; pSTAT5, AML Sample (pSTAT5; patient AML5 (Example 3)): 2.0; pSTAT5, AML Sample (pSTAT5; patient AML6 (Example 3)): 2.5; pSTAT5, AML Sample (pSTAT5; patient AML8 (Example 3)): 10.6; pSTAT5, AML Sample (pSTAT5; patient AML13 (Example 3)): 14.6; pSTAT5, AML Sample (pSTAT5; patient AML14 (Example 3)): 4.7

**Q.** How did the “Fold Stimulation, pERK/pS6” value (pERK and pS6; AML1) turn out when Stem Cell Factor [SCF] was run?
**A.** 1.4

**Q.** What about the “Frequency, pERK/pS6” value (pERK and pS6; AML1) of the same molecule?
**A.** 0.92

**Q.** What about the “MFI, pERK/pS6” value (pERK and pS6; AML1) of the same molecule?
**A.** 0.48

**Q.** What about the “Positives/Negatives, pERK/pS6” value (pERK and pS6; AML1) of the same molecule?
**A.** 0.29

**Q.** And the “Fold Stimulation, pERK/pS6” value (pERK and pS6; AML2)?
**A.** 2.1

**Q.** What about the “Frequency, pERK/pS6” value (pERK and pS6; AML2) of the same molecule?
**A.** 0.93

**Q.** And the “MFI, pERK/pS6” value (pERK and pS6; AML2)?
**A.** 0.54

**Q.** And the “Positives/Negatives, pERK/pS6” value (pERK and pS6; AML2)?
**A.** 0.32

**Q.** And the “[(pERK)max:(pS6)max]MFI ratio” value (pERK and pS6; AML samples)?
**A.** about 0.5

**Q.** What about the “[(pERK)max:(pS6)max]POS/NEG ratio” value (pERK and pS6; AML samples) of the same molecule?
**A.** about 0.3

**Q.** What about the “Fold Stimulation, pERK/pS6” value (pERK and pS6; healthy donors 6 to 9) of the same molecule?
**A.** 5.3

**Q.** And the “Frequency, pERK/pS6” value (pERK and pS6; healthy donors 6 to 9)?
**A.** 3.1

**Q.** What about the “MFI, pERK/pS6” value (pERK and pS6; healthy donors 6 to 9) of the same molecule?
**A.** 3.6

**Q.** What about the “Positives/Negatives, pERK/pS6” value (pERK and pS6; healthy donors 6 to 9) of the same molecule?
**A.** 11

**Q.** What about the “pAKT, AML Sample” value (pAKT; patient AML5 (Example 3)) of the same molecule?
**A.** typical upregulation of pAKT

**Q.** What about the “pAKT activation kinetics compared to normal” value (pAKT; patient AML7 (Example 3), abnormal blasts) of the same molecule?
**A.** significant delayed activation, and prolonged expression

**Q.** What about the “pAKT, AML Sample” value (pAKT; patient AML11 (Example 3)) of the same molecule?
**A.** 3.2

B1: FMS-Like Tyrosine Kinase 3 (FLT-3) ligand (protein, UniProt P49771 27-235, looked up)
Fms-related tyrosine kinase 3 …: TQDCSFQHSPISSDFAVKIRELSDYLLQDYPVTVASNLQDEELCGGLWRLVLAQRWMERLKTVAGSKMQGLLERVNTEIHFVTKCAFQPPPSCLRFVQTNISRLLQETSEQLVALKPWITRQNFSRCLELQCQPDSSTLPPPWSPRPLEATAPTAPQPPLLLLLLLPVGLLLLAAAWCLHWQRTRRRTPRPGEQVPPVPSPQDLLLVEH
**Q.** Which “pAKT, AML Sample” value (pAKT; patient AML5 (Example 3)) does the source give for B1 here?
**A.** 8.1
